In one test the target is T1, ULK1 kinase (Homo sapiens, UniProt O75385, E37A/K38A).
T1 construct: (residues 1-283; ID NO: 2); purchased Beryllium
T1 sequence (O75385 1-283 E37A/K38A): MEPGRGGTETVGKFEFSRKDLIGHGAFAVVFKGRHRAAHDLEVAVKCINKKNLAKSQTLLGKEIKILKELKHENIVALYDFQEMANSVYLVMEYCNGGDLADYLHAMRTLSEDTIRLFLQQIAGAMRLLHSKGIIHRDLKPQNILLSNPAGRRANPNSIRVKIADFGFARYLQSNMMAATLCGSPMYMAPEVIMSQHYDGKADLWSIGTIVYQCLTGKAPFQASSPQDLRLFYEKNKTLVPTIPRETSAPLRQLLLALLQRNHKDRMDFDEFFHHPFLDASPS
Kind of test: Biochemical assay for ULK1.3 (coupled pyruvate kinase/lactate dehydrogenase assay). To be noted: 0.1 nM ULK1 (from Beryllium), peptide substrate, 1 mM ATP.
`Cc1nn([C@H]2CCN(C)C2)cc1Nc1ncc(Br)c(NCCCN2CCCCC2=O)n1` [Example 61] showed an IC50 of 25 to 100 nM.
In turn, `Cc1nn(C2CCN(C(C)C)CC2)cc1Nc1ncc(C(F)(F)F)c(NCCCN2CCCOC2=O)n1` [Example 68] gave an IC50 of 25 to 100 nM.
Same read-out and setting: then `Cc1nn(C2CCN(C)CC2)cc1Nc1ncc(C(F)(F)F)c(NCCCN2CCCOCC2=O)n1` [Example 102], with 1 to 25 nM.
`Cc1nn(C2CCN(C)CC2)cc1Nc1ncc(C(F)(F)F)c(NCCCN2CCOCCC2=O)n1` [Example 127] gave a concentration for half-maximal inhibition (IC50) of 1 to 25 nM.

A further test deals with T2, LRRK2 kinase (Homo sapiens, UniProt Q5S007).
T2 construct: purchased Thermo Fisher
T2 sequence (Q5S007 with tags, fused parts or gaps): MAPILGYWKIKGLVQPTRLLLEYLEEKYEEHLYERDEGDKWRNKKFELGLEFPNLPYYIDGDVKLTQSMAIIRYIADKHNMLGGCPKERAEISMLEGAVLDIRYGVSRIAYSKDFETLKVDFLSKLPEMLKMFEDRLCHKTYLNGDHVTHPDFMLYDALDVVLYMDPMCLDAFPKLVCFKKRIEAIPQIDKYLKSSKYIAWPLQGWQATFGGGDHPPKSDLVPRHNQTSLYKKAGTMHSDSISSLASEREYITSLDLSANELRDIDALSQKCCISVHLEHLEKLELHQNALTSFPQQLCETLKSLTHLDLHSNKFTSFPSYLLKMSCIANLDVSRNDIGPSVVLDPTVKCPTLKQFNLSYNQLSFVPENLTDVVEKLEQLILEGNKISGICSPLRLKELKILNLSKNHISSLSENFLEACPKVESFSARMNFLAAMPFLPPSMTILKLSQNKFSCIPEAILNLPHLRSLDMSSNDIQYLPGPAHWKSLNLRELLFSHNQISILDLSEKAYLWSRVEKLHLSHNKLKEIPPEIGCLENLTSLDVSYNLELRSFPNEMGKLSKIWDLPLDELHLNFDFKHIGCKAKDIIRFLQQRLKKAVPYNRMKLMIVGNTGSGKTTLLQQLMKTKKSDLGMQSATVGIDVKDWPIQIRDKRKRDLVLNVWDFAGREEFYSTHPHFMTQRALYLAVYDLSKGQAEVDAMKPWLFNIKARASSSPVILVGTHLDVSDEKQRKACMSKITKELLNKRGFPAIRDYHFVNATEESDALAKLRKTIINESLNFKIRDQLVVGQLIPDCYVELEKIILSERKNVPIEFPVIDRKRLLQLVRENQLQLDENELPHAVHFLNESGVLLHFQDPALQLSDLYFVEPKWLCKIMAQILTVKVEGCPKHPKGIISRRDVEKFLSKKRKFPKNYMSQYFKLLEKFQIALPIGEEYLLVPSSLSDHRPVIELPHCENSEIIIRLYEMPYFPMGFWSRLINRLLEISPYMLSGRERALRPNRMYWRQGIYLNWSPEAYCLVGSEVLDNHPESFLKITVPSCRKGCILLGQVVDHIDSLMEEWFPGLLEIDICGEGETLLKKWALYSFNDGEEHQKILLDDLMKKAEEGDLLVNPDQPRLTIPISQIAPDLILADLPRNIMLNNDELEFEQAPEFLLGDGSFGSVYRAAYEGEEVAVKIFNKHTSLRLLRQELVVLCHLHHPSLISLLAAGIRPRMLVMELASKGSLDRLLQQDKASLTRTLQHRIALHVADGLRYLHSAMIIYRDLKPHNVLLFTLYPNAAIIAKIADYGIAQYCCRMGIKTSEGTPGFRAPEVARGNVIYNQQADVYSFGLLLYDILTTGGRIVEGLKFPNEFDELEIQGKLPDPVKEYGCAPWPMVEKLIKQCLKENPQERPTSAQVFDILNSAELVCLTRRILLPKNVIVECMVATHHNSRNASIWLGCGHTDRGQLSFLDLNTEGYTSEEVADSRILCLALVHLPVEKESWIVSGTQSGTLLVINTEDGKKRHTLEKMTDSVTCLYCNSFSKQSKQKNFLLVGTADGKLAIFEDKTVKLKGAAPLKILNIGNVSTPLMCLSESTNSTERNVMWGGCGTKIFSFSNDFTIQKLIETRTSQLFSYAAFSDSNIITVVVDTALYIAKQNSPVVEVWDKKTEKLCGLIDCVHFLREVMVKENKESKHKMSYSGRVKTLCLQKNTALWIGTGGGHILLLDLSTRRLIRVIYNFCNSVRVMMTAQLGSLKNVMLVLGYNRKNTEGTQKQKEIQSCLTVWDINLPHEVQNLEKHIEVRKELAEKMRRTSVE
Nature of the test: Biochemical assay for LRRK2 (coupled pyruvate kinase/lactate dehydrogenase assay). To be noted: 26.4 nM LRRK2 (residues 970-2528), 0.1 mM peptide substrate, 1 mM ATP.
Regarding `CCN1CC[C@H](n2cc(Nc3ncc(Br)c(NCCCN4CCCCC4=O)n3)c(C)n2)C1` [Example 64], the IC50 lay in the range of 300 to 600 nM.
`Cc1nn(C2CCN(C)CC2)cc1Nc1ncc(C(F)(F)F)c(NCCCN2CCCCC2=O)n1` [Example 8]: the IC50 was 100 to 300 nM.

For orientation: IC50 means the concentration needed to halve the response being measured. Read a low IC50 as greater potency in that assay.

Source of the values: patent US11518758B2, “Heteroarylaminopyrimidine amide autophagy inhibitors and methods of use thereof” (Deciphera Pharmaceuticals, LLC, priority 2019, dated 2022).
